ChEMBL document CHEMBL3638482, “2,3-disubstituted pyrazinesulfonamides as CRTH2 inhibitors” (2014)

Target: T1, Prostaglandin D2 receptor 2 (Homo sapiens, UniProt Q9Y5Y4)
T1 sequence (Q9Y5Y4 whole entry): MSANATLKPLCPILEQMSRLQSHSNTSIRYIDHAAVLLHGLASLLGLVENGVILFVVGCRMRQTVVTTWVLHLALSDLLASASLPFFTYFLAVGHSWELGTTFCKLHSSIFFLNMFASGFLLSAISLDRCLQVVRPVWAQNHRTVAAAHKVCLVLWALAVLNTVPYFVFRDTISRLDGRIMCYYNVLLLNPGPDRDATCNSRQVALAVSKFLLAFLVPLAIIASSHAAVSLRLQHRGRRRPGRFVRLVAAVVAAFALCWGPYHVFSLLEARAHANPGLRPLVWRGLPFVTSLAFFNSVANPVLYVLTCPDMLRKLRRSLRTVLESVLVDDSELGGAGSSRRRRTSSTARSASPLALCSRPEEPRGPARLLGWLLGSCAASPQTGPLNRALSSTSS
Assay: The inhibitory activity can be investigated by a radioligand binding assay (Sawyer et al., Br. J. Pharmocol 2002, 137, 1163-72). The radioligand binding assay was performed at room temperature in binding buffer (10 mM HEPES/KOH pH […], with protease inhibitor cocktail tablets), containing 1.5 nM [3H]PGD2 (Amersham, 156 Cie/mmol), and 10 ug of hCRTH2 HEK293 (EBNA) cell membrane protein in a final volume of 100 ul in 96 well plates (Corning, USA). Non-specific binding was determined in the presence of 1 uM PGD2 (Cayman, USA). Competing pyrazine sulfonamides were diluted in dimethylsulphoxide so that the total volume of dimethylsulfoxide was kept constant at 1% dimethylsulphoxide (Me2SO). 10 ul of the pyrazine sulfonamides were added. Incubation (60 min at room temperature) was terminated by rapid filtration through 96 wells hydrophobic GF/C Unifilter plates.

| Structure (SMILES) | Ki |
| --- | --- |
| COc1ccc(OCc2ccc(-c3nccnc3NS(=O)(=O)c3ccccc3C(F)(F)F)cc2)cc1 | 2.6 µM |
| O=S(=O)(Nc1nccnc1-c1ccc(CN2CCOc3ccccc32)cc1)c1ccccc1C(F)(F)F | 0.62 µM |
| O=S(=O)(Nc1nccnc1-c1ccc(CN2CCc3ccccc32)cc1)c1ccccc1C(F)(F)F | 2.69 µM |
| CN(Cc1ccc(-c2nccnc2NS(=O)(=O)c2ccccc2Cl)cc1)c1ccc(F)cc1F | 2.95 µM |
| O=S(=O)(Nc1nccnc1-c1ccc(Cn2ccc3ccc(F)cc32)cc1)c1ccccc1C(F)(F)F | 1.93 µM |
| O=S(=O)(Nc1nccnc1-c1ccc(CN(Cc2ccccc2)c2ccccn2)cc1)c1ccccc1Cl | 2.64 µM |
| N#Cc1ccc(OCc2ccc(-c3nccnc3NS(=O)(=O)c3ccccc3C(F)(F)F)cc2)cc1 | 1.59 µM |
| O=S(=O)(Nc1nccnc1-c1ccc(CN(Cc2ccccc2)c2ccccn2)cc1)c1ccccc1C(F)(F)F | 4.44 µM |
| Cc1cc2cc(Cl)ccc2n1Cc1ccc(-c2nccnc2NS(=O)(=O)c2ccccc2C(F)(F)F)cc1 | 4.65 µM |
| CN(Cc1ccc(-c2nccnc2NS(=O)(=O)c2ccccc2Cl)cc1)c1ccc(C#N)cc1 | 1.49 µM |
| COc1ccc2c(c1)cc(C)n2Cc1ccc(-c2nccnc2NS(=O)(=O)c2ccccc2Cl)cc1 | 2.21 µM |
| Cc1cc2ccccc2n1Cc1ccc(-c2nccnc2NS(=O)(=O)c2ccccc2C(F)(F)F)cc1 | 3.06 µM |
| O=S(=O)(Nc1nccnc1-c1ccc(COc2ccc(Cl)nc2)cc1)c1ccccc1C(F)(F)F | 0.72 µM |
| O=S(=O)(Nc1nccnc1-c1ccc(Cn2c(-c3ccccn3)cc3ccccc32)cc1)c1ccccc1C(F)(F)F | 0.85 µM |
| O=S(=O)(Nc1nccnc1-c1ccc(COc2ccccc2)cc1)c1ccccc1C(F)(F)F | 1.32 µM |
| O=S(=O)(Nc1nccnc1-c1ccc(COc2ccc(F)cc2)cc1)c1ccccc1C(F)(F)F | 0.48 µM |
| O=S(=O)(Nc1nccnc1-c1ccc(COc2cccc(Cl)c2)cc1)c1ccccc1C(F)(F)F | 2.9 µM |

The remaining lines, values ahead:

| Ki | Structure (SMILES) |
| --- | --- |
| 2.82 µM | CN(Cc1ccc(-c2nccnc2NS(=O)(=O)c2ccccc2C(F)(F)F)cc1)c1ccc(Cl)cc1Cl |
| 0.59 µM | CCN(Cc1ccc(-c2nccnc2NS(=O)(=O)c2ccccc2C(F)(F)F)cc1)c1ccccc1 |
| 0.7 µM | CN(Cc1ccc(-c2nccnc2NS(=O)(=O)c2ccccc2C(F)(F)F)cc1)c1cccc(F)c1 |
| 1.47 µM | CN(Cc1ccc(-c2nccnc2NS(=O)(=O)c2ccccc2C(F)(F)F)cc1)c1ccc(Cl)cc1 |
| 1.58 µM | CN(Cc1ccc(-c2nccnc2NS(=O)(=O)c2ccccc2C(F)(F)F)cc1)c1ccc(Cl)c(Cl)c1 |
| 0.95 µM | O=S(=O)(Nc1nccnc1-c1ccc(Cn2ccc3cc(F)ccc32)cc1)c1ccccc1C(F)(F)F |
| 0.47 µM | CN(Cc1ccc(-c2nccnc2NS(=O)(=O)c2ccccc2C(F)(F)F)cc1)c1ccc(C#N)cc1 |
